Data: patent US20250314869A1, “SYSTEMS AND METHODS FOR HIGH THROUGHPUT SINGLE MOLECULE TRACKING IN LIVING CELLS” (EIKON THERAPEUTICS, INC., priority 2022, published 2025)
Entries after “also recorded” stand apart in the source; their conditions may differ. Read-outs that look alike come from different tables or passages of the source.

Key:
Estrogen Receptor (ER) [1] = molecular target: T1, Estrogen Receptor (ER) (Homo sapiens, UniProt P03372); assay: htSMT of Halo-ER in U2OS cells (fbound, Dfree); format: cell-based; conditions: for change in ER fbound: follow-up of selected compounds
T1 construct: expressed in transfected cells
T1 sequence (P03372 1-595): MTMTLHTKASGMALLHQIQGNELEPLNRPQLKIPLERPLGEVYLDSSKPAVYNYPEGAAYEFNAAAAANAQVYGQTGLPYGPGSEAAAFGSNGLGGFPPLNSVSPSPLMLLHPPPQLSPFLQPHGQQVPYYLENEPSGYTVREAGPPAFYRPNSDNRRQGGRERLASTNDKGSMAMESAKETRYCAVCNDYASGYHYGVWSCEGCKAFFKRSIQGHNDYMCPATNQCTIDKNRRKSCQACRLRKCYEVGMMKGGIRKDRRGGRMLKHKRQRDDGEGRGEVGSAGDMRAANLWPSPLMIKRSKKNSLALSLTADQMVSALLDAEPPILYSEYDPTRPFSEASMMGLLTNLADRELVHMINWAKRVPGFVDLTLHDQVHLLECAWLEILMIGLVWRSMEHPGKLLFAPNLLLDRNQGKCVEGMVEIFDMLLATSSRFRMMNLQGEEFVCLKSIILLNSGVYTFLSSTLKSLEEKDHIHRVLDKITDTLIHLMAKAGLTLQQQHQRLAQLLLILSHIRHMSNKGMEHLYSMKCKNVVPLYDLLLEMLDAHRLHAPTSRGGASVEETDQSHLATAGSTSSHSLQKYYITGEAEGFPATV

[2] = molecular target: T2, glucocorticoid receptor (GR) (Homo sapiens, UniProt P04150); assay: htSMT of Halo-GR in U2OS cells; format: cell-based; conditions: 1 μM antagonist, singly or with cognate agonist
T2 construct: Because U2OS cells express GR endogenously; endogenous in cells; host or cells: U2OS, CRISPR/Cas9 knock-in at the endogenous NR3C1 locus
T2 sequence (P04150 1-777): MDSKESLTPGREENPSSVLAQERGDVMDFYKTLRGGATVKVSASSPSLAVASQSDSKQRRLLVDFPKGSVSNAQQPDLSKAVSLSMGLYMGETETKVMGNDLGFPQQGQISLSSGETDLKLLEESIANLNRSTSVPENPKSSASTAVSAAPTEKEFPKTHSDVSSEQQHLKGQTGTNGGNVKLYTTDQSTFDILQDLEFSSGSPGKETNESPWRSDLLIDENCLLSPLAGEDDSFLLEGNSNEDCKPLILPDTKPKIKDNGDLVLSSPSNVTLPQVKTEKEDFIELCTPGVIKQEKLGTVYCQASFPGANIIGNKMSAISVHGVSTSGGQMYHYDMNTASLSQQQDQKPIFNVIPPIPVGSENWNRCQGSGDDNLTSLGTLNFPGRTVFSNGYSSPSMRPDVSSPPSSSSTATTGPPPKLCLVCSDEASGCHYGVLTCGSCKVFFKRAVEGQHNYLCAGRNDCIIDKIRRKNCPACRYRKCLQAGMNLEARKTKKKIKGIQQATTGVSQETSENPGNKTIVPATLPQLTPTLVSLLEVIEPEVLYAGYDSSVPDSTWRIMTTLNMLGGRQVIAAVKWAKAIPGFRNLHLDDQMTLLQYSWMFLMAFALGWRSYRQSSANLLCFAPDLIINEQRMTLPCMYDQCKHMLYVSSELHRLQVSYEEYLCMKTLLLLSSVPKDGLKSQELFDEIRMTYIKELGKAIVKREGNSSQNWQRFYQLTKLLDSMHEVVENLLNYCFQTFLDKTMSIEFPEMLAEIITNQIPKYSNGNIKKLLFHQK
Description: Where appropriate, compounds were serially diluted in an Echo Qualified 384-Well Low Dead Volume Source Microplate (0018544, Beckman Coulter) to generate dose-titration source material.

androgen receptor (AR) = androgen receptor (AR) (Homo sapiens, UniProt P10275)
Estrogen Receptor (ER) [3] = molecular target: T1, Estrogen Receptor (ER); assay: kinetic SMT (kSMT) of ER after compound addition; format: cell-based; conditions: 100 nM compound
Estrogen Receptor (ER) [4] = molecular target: T1, Estrogen Receptor (ER); assay: residence time imaging of ER-Halo (track length); format: cell-based; conditions: versus DMSO, 100 nM HSP90 inhibition
ER = ER (Homo sapiens, UniProt P03372); assay: western blot of ER after 24 hours treatment; format: cell-based; conditions: 24 hours prior to lysis; MCF7, T47d, U2OS ER-HaloTag
Method: Cells were grown in the same conditions as described previously. […] Cells are lysed in 200 μL 1× Cell Lysis Buffer (catalogue number 9803, Cell Signaling). Protein lysate concentration is then determined using BCA protein assay kit (Catalog number 23225, Pierce™ BCA Protein Assay Kit) following manufacturer instructions. Capillary Western Immunoassay were performed using Jess Protein Simple following manufacturer's instruction (protein simple, USA). Levels of αER (1:100, RM-9101) were normalized to loading control β-tubulin (1:100, NC0244815 LI-COR 92642213, Thermo Fisher). The peaks were analyzed with the Compass software (Protein Simple, USA).

Chain of androgen receptor (AR) (P10275 whole entry): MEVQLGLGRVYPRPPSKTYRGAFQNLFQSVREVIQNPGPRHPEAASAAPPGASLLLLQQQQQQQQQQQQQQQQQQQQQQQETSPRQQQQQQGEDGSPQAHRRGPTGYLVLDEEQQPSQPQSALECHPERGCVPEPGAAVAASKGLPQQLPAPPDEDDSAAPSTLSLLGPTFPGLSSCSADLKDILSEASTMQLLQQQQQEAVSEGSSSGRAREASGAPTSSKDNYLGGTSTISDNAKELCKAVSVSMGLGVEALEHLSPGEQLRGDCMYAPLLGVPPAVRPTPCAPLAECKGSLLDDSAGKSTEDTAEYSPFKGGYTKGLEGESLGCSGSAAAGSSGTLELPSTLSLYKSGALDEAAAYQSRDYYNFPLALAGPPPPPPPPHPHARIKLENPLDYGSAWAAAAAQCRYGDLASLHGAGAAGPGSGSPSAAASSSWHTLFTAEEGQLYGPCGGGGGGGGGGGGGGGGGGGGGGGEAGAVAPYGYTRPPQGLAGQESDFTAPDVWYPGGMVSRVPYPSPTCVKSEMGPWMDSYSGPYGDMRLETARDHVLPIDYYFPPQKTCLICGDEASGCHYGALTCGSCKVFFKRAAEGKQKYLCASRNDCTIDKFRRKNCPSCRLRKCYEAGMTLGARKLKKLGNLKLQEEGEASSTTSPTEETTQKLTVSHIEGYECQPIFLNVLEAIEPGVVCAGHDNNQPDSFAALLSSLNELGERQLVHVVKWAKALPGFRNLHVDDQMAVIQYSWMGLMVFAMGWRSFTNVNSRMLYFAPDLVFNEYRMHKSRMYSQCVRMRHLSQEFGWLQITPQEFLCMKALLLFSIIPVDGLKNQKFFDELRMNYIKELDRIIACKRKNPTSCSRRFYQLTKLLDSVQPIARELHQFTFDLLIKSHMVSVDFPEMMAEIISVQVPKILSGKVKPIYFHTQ

Row | Molecule | time at which overall effect on fbound reached a plateau (Estrogen Receptor (ER) [3]) | decrease in total number of long binding events (Estrogen Receptor (ER) [4]) | change in ER fbound (Estrogen Receptor (ER) [1]) | also measured
1 | 4-hydroxytamoxifen | – | – | – | change in ER fbound in bioactive screen (Estrogen Receptor (ER) [1]): significantly increased fbound; maximal increase in ER fbound (Estrogen Receptor (ER) [1]): lower maximal increases in fbound
2 | CN(C)c1ccc(C(c2ccc(N(C)C)cc2)c2cc([N+](=O)[O-])ccc2Cl)cc1 [AL082D06] | – | – | – | GR chromatin binding (fbound) [2]: decrease in chromatin binding
3 | CC(O)c1cc(C(=O)N[C@@H](C)Cn2ccc(-c3ccc(C#N)c(Cl)c3)n2)[nH]n1 (stereo partly drawn) [Darolutamide] | – | – | – | AR fbound / chromatin binding (androgen receptor (AR)): decrease in chromatin binding
4 | C[C@]12CC[C@@H]3c4ccc(O)cc4C[C@@H](CCCCCCCCC[S+]([O-])CCCC(F)(F)C(F)(F)F)[C@H]3[C@@H]1CC[C@@H]2O (stereo partly drawn) [fulvestrant] | – | – | – | ER degradation (western blot) (ER): degradation of ER; change in ER fbound in bioactive screen (Estrogen Receptor (ER) [1]; 1 μM compound versus DMSO): increase in fbound; also recorded: significantly increased fbound

Continued, in another order:

Row | time at which overall effect on fbound reached a plateau (Estrogen Receptor (ER) [3]) | decrease in total number of long binding events (Estrogen Receptor (ER) [4]) | change in ER fbound (Estrogen Receptor (ER) [1]) | Molecule | also measured
5 | plateau after an hour | two | increase in fbound | COc1cccc(-c2cc(F)ccc2[C@H]2Cc3nc(N)nc(C)c3C(=O)N2)n1 [HSP990] | –
6 | plateau after an hour | four | increase in fbound | CC(C)c1cc(-c2n[nH]c(=O)n2-c2ccc3c(ccn3C)c2)c(O)cc1O [ganetespib] | –
